For orientation: MIC50 means an inhibitory concentration at the 50% level, which refers to growth in some studies and to a panel of isolates in others. The MIC90 is the lowest concentration that inhibits either 90% of growth or 90% of the strains tested, depending on the study. One may read the MIC as the lowest concentration that inhibits growth of the organism.

Holding throughout (type): cell-based
Assay [1] has as its system Escherichia coli (carbapenem-resistant clinical isolate; ATCC25922). Kind of assay: MIC by micro broth dilution (CLSI), Escherichia coli. As to conditions: Escherichia coli; for MIC50 / MIC90: ATCC25922, Clinical strain; for MIC50: read-out: MIC50; for MIC90: read-out: MIC90; for MIC: Standard strain ATCC25922, read-out: MIC. The source says: (§1) The test bacteria were one strain of clinically isolated carbapenem-resistant Escherichia coli, two strains of carbapenem-resistant Acinetobacter baumannii, two strains of methicillin-resistant Staphylococcus aureus, two strains of sensitive Staphylococcus aureus, and 7 strains of Klebsiella pneumoniae. Duplicate strains isolated from the same patient were eliminated. There were also […] quality control strains Escherichia coli ATCC25922, Acinetobacter baumannii ATCC19606, Staphylococcus aureus ATCC29213, Klebsiella pneumoniae ATCC BAA-1705, ATCC 43816, ATCC BAA-2472, ATCC-BAA-1898, ATCC-BAA-1899, NCTC 13440 and ATCC-BAA-2470. There were 24 strains in total.
(§2) According to the recommendations of relevant documents of the American Clinical and Laboratory Standards Institute (CLSI), the micro broth dilution method was used to determine the MIC of the compounds of the present invention against clinically isolated strains. • 3.1 Formulation of antibacterial drug: All the compounds of the present invention were dissolved in DMSO. The drug concentration range was 128 mg/L to 0.06 mg/L. • 3.2 Culture medium: The drug susceptibility test used cation adjusted Mueller-Hinton broth (CAMHB). • 3.3 Amount of inoculum: The test bacteria cultured overnight were adjusted to 0.5 McFarland turbidity by the direct colony suspension method, and diluted 100 folds, the final inoculum amount was 10^5 CFU/mL. • 3.4 Culture conditions: The test bacteria were cultured at 35±2° C. for 20 hours in air.
(§3) The drug susceptibility test results were interpretated by reference to CLSI 2019 M100 29th edition criteria.
(§4) The quality control strains of the drug susceptibility test were Escherichia coli ATCC 25922, Acinetobacter baumannii ATCC 19606, Staphylococcus aureus ATCC 29213, Klebsiella pneumoniae ATCC BAA-1705, ATCC 43816, ATCC BAA-2472, ATCC-BAA-1898, ATCC-BAA-1899, NCTC 13440 and ATCC-BAA-2470.
(§5) The results of drug susceptibility test were statistically analyzed by WHONET software (version 5.6).
In general terms: Dilution methods test growth across graded concentrations, often in twofold steps.

Assay [2] deals with Acinetobacter baumannii (carbapenem-resistant clinical isolates; ATCC19606). The assay can be described thus: MIC by micro broth dilution (CLSI), Acinetobacter baumannii. As to conditions: Acinetobacter baumannii; for MIC50 / MIC90: ATCC19606, Clinical strain; for MIC50: read-out: MIC50; for MIC90: read-out: MIC90; for MIC: Standard strain ATCC19606, read-out: MIC.
Description: as §1, §2, §3, §4, §5

Assay [3] has as its system Staphylococcus aureus (methicillin-resistant and sensitive clinical isolates; ATCC29213). Kind of assay: MIC by micro broth dilution (CLSI), Staphylococcus aureus. As to conditions: for MIC50 / MIC90: Clinical strain; for MIC50: read-out: MIC50; for MIC90: read-out: MIC90; for MIC: Standard strain ATCC29213, read-out: MIC.
Description: as §1, §2, §3, §4, §5

In brackets after ≈: the same amount, converted by molar mass.

For `O=[N+]([O-])c1cc(Cl)c2c(N3CCCC(c4ccccc4)C3)ccnc2c1O` (stereo not drawn) [Example 111, 5-chloro-7-nitro-4-(3-phenylpiperidin-1-yl)quinolin-8-ol], in assay [1], the MIC50 is more than 128 µg/mL, the MIC90 is more than 128 µg/mL and the MIC was more than 128 µg/mL. Also, in assay [2], the MIC50 is more than 128 µg/mL, the MIC90 was more than 128 µg/mL and the MIC is more than 128 µg/mL. Moreover, in assay [3], the MIC50 was more than 128 µg/mL, the MIC90 was more than 128 µg/mL and the MIC is more than 128 µg/mL.

With `O=[N+]([O-])c1ccc2cc(C3CC3)cnc2c1O` [Example 112, 3-cyclopropyl-7-nitroquinolin-8-ol], in assay [1], the MIC50 came to 64 µg/mL (≈ 278 µM), the MIC90 was found to be 128 µg/mL (≈ 556 µM) and the MIC turned out to be 32 µg/mL (≈ 139 µM). In assay [2], the MIC50 worked out at 8 µg/mL (≈ 34.7 µM), the MIC90 was 32 µg/mL (≈ 139 µM) and the MIC was 32 µg/mL (≈ 139 µM). Moreover, in assay [3], the MIC50 amounted to 2 µg/mL (≈ 8.69 µM), the MIC90 was 4 µg/mL (≈ 17.4 µM) and the MIC amounted to 4 µg/mL (≈ 17.4 µM).

As to `[2H]c1ccc2c(Cl)cc([N+](=O)[O-])c(O)c2n1` [Example 113, 5-chloro-7-nitroquinolin-2-d-8-ol], in assay [1], the MIC50 was found to be 16 µg/mL (≈ 70.9 µM), the MIC90 stood at 16 µg/mL (≈ 70.9 µM) and the MIC came out at 8 µg/mL (≈ 35.5 µM). In addition, in assay [2], the MIC50 stood at 8 µg/mL (≈ 35.5 µM), the MIC90 was 16 µg/mL (≈ 70.9 µM) and the MIC is 8 µg/mL (≈ 35.5 µM). Moreover, in assay [3], the MIC50 was determined as 4 µg/mL (≈ 17.7 µM), the MIC90 came to 4 µg/mL (≈ 17.7 µM) and the minimum inhibitory concentration (MIC) worked out at 4 µg/mL (≈ 17.7 µM).

Take `O=[N+]([O-])c1c(Br)c(Cl)c2cccnc2c1O` [Example 114, 6-bromo-5-chloro-7-nitroquinolin-8-ol]: in assay [1], the MIC50 is 64 µg/mL (≈ 211 µM), the MIC90 was determined as 64 µg/mL (≈ 211 µM) and the MIC was 16 µg/mL (≈ 52.7 µM). Besides, in assay [2], the MIC50 was determined as 4 µg/mL (≈ 13.2 µM), the MIC90 was 8 µg/mL (≈ 26.4 µM) and the MIC came out at 8 µg/mL (≈ 26.4 µM). For the same molecule, in assay [3], the MIC50 was determined as 2 µg/mL (≈ 6.59 µM), the MIC90 was determined as 2 µg/mL (≈ 6.59 µM) and the MIC came out at 2 µg/mL (≈ 6.59 µM).

Turning to `O=[N+]([O-])c1c(Cl)c(Cl)c2cccnc2c1O` [Example 115, 5,6-dichloro-7-nitroquinolin-8-ol], the MIC50 in assay [1] was 64 µg/mL (≈ 247 µM); in assay [2], 4 µg/mL (≈ 15.4 µM); in assay [3], 1 µg/mL (≈ 3.86 µM). The figures for the MIC90 in assay [1], in assay [2] and in assay [3] were 64 µg/mL (≈ 247 µM), 4 µg/mL (≈ 15.4 µM) and 1 µg/mL (≈ 3.86 µM), respectively. Further, the MIC in assay [1] is 16 µg/mL (≈ 61.8 µM); in assay [2] it was 4 µg/mL (≈ 15.4 µM); in assay [3], 2 µg/mL (≈ 7.72 µM).

Consider `[2H]c1ccc2ccc([N+](=O)[O-])c(O)c2n1` [Example 116, 7-nitroquinolin-2-d-8-ol], for which, in assay [1], the MIC50 turned out to be 16 µg/mL (≈ 83.7 µM), the MIC90 is 16 µg/mL (≈ 83.7 µM) and the MIC came out at 8 µg/mL (≈ 41.8 µM). In addition, in assay [2], the MIC50 was 4 µg/mL (≈ 20.9 µM), the MIC90 is 4 µg/mL (≈ 20.9 µM) and the MIC is 4 µg/mL (≈ 20.9 µM). In assay [3], the MIC50 was 4 µg/mL (≈ 20.9 µM), the MIC90 was found to be 8 µg/mL (≈ 41.8 µM) and the MIC is 4 µg/mL (≈ 20.9 µM).

In the case of `[2H]c1cc2cccnc2c(O)c1[N+](=O)[O-]` [Example 117, 7-nitroquinolin-6-d-8-ol], in assay [1], the MIC50 was 8 µg/mL (≈ 41.8 µM), the MIC90 was found to be 16 µg/mL (≈ 83.7 µM) and the MIC was determined as 8 µg/mL (≈ 41.8 µM). In assay [2], the MIC50 stood at 4 µg/mL (≈ 20.9 µM), the MIC90 is 4 µg/mL (≈ 20.9 µM) and the MIC was found to be 4 µg/mL (≈ 20.9 µM). Also, in assay [3], the MIC50 was 4 µg/mL (≈ 20.9 µM), the MIC90 is 8 µg/mL (≈ 41.8 µM) and the MIC was 4 µg/mL (≈ 20.9 µM).

Turning to `O=[N+]([O-])c1cc(Cl)c2c(N3CCCC(F)(F)C3)ccnc2c1O` [Example 118, 5-chloro-4-(3,3-difluoropiperidin-1-yl)-7-nitroquinolin-8-ol], in assay [1], the MIC50 was more than 128 µg/mL, the MIC90 is more than 128 µg/mL and the MIC is more than 128 µg/mL. Also, in assay [2], the MIC50 turned out to be 128 µg/mL (≈ 372 µM), the MIC90 is more than 128 µg/mL and the MIC is more than 128 µg/mL. Besides, in assay [3], the MIC50 worked out at 8 µg/mL (≈ 23.3 µM), the MIC90 came to 128 µg/mL (≈ 372 µM) and the MIC came out at 128 µg/mL (≈ 372 µM).

Values taken from US20240246916A1, “7-NITRO-8-HYDROXYQUINOLINE DERIVATIVES, PREPARATION METHOD THEREFORE AND MEDICAL USE THEREOF” (Jiangsu Yahong Meditech Co., Ltd., priority 2021, published 2024).
